Source: a compilation of properties of binary mixtures (doi:10.1016/j.jct.2017.07.022)

Assay: xn = mol fraction of the nth substance listed
Conditions: 100 kPa

CCCO + CC[n+]1ccccc1.N#C[N-]C#N
x1 = 1
Conditions	viscosity [mPa·s]
293.15 K	2.22
298.15 K	1.97
303.15 K	1.75
308.15 K	1.56
313.15 K	1.36
318.15 K	1.23

CC[n+]1ccccc1.N#C[N-]C#N + CC(C)O
viscosity [mPa·s]
Conditions	x2 = 0	x2 = 0.1055	x2 = 0.1999	x2 = 0.2997	x2 = 0.4023	x2 = 0.499	x2 = 0.5998	x2 = 0.7006	x2 = 0.8007	x2 = 0.8997
288.15 K	25.9	21.3	18.3	–	12.3	10	8.04	6.15	4.78	3.75
293.15 K	22.1	–	15.6	12.9	10.7	8.68	7.02	5.39	4.18	3.28
298.15 K	18.9	15.6	13.4	11.2	–	7.61	6.19	4.77	3.7	2.89
303.15 K	16.4	13.5	11.6	9.83	8.17	6.72	–	4.24	3.29	2.55
308.15 K	14.3	11.7	10.1	8.69	7.24	6	4.91	–	2.95	–
313.15 K	–	10.3	8.9	7.72	6.47	5.38	–	–	–	2.03
318.15 K	11	9.08	7.9	6.92	5.82	4.85	–	–	2.41	1.83

CC[n+]1ccccc1.N#C[N-]C#N + CCCO
viscosity [mPa·s]
Conditions	x2 = 0	x2 = 0.1095	x2 = 0.1947	x2 = 0.3011	x2 = 0.4029	x2 = 0.5008	x2 = 0.6003	x2 = 0.702	x2 = 0.8012	x2 = 0.9
288.15 K	25.9	–	–	15.2	12	9.7	7.73	5.99	–	3.48
293.15 K	–	17.7	15.3	–	10.4	8.45	6.78	5.28	–	3.09
298.15 K	18.9	15.3	13.1	11.7	9.11	–	6	4.7	3.61	–
303.15 K	16.4	13.2	11.3	10.3	–	6.6	5.34	–	3.24	2.48
308.15 K	14.3	11.4	–	9.11	7.14	–	4.79	3.78	–	–
313.15 K	12.5	9.9	–	8.13	6.39	–	4.33	3.42	2.65	2.03
318.15 K	–	8.74	7.85	7.35	5.76	–	3.93	–	2.42	–

CC[n+]1ccccc1.N#C[N-]C#N + CCO
viscosity [mPa·s]
Conditions	x2 = 0	x2 = 0.1008	x2 = 0.1974	x2 = 0.3008	x2 = 0.3994	x2 = 0.5058	x2 = 0.5994	x2 = 0.6996	x2 = 0.7999	x2 = 0.9011
288.15 K	–	–	16.8	13.4	10.5	7.99	6.13	4.66	3.05	2.24
293.15 K	22.1	–	14.4	11.7	9.23	7.07	5.46	4.22	2.78	2.02
298.15 K	–	15.4	–	–	8.19	6.31	4.91	3.85	–	1.86
303.15 K	16.4	13.3	10.9	9.23	7.34	5.69	4.47	3.49	2.31	–
308.15 K	14.3	11.5	9.58	8.28	6.61	–	4.08	3.19	2.12	1.55
313.15 K	12.5	10.1	8.51	7.45	–	–	–	–	1.94	1.42
318.15 K	11	–	7.62	6.74	–	4.31	3.44	2.68	1.79	1.31

CCO + CC[n+]1ccccc1.N#C[N-]C#N
x1 = 1
Conditions	viscosity [mPa·s]
293.15 K	1.17
298.15 K	1.07
303.15 K	0.975
308.15 K	0.89
313.15 K	0.815
318.15 K	0.747

CC(C)O + CC[n+]1ccccc1.N#C[N-]C#N
x1 = 1
Conditions	viscosity [mPa·s]
288.15 K	2.83
293.15 K	2.42
298.15 K	2.08
303.15 K	1.8
308.15 K	1.56
313.15 K	1.33
318.15 K	1.17
